Like-named read-outs stand apart in the source and are kept apart here.
Tests used:
Cytotoxicity assay (MTT) = assay type: cell-based, BALB/c mice; settings: BALB/c, mouse
Description: To determinate the toxicity of the inhibitors on mammalian cells, peritoneal macrophages from BALB/c mice, obtained by peritoneal lavage, in concentration of 2 × 10^6 macrophages/mL, were adhered in 96-well culture plates overnight at 37 °C with 5% CO2. The inhibitors were then added in different concentrations and incubated for 72 h at 37 °C and 5% CO2. Cell viability was also assessed by the MTT method. Cytotoxic concentration of 50% of macrophages (CC50) values were calculated using GraPadPrism 8 software. Three independent experiments in triplicate were performed.

[1] = tested on: Leishmania amazonensis-WT promastigotes; test: Antipromastigote assay (MTT); assay type: cell-based; settings: 72 h of incubation; interval in brackets; read-out: Antileishmanial effect in Leishmania amazonensis IC50 Promastigote
Description: Leishmania amazonensis–WT promastigotes, in the logarithmic phase of growth, were transferred to 96-well culture plates (final concentration 2 × 10^6 cells/mL) and exposed to different concentrations of inhbitors during 72 h at 25 °C. The cell viability was evaluated by the 3-(4,5-dimethylthiazol-2-yl)-2,5 diphenyltetrazolium bromide (MTT) method (obtained from Sigma-Aldrich). The inhibitory concentration of 50% of parasite growth (IC50) values were calculated using GraphPad Prism 8 software […]. Three independent experiments in triplicate were performed. Amphotericin B (Cristália, São Paulo, SP, Brazil) was used as a reference drug.

[2] = tested on: L. donovani in RAW 264.7 cells; set-up: method as in PMID 26040107; settings: promastigotes pretreated 2 h; cited from earlier work
[3] = tested on: L. donovani promastigotes; set-up: method as in PMID 26040107; settings: cited from earlier work; for cell viability of L. donovani promastigotes: aprotinin 1 µM, benzamidine 1 mM, after 5 h, 10 h, 15 h and 20 h of incubation
[4] = tested on: L. donovani serine proteases; set-up: method as in PMID 26040107; settings: cited from earlier work
[5] = tested on: L. amazonensis in peritoneal macrophages; test: Promastigote pretreatment and infection of peritoneal macrophages; assay type: cell-based, Leishmania amazonensis; settings: for entry of promastigotes into macrophages: promastigotes pretreated 1 h, 0 h after 4 h interaction; for conversion of promastigotes into amastigotes: pretreated parasites (PF-429242 3.2 µM, TPCK 30 µM); for number of intracellular amastigotes (Giemsa, Supplementary Fig. 1): pretreatment with PF-429242 3.2 µM or TPCK 30 µM
Description: (§1) Leishmania amazonensis-RFP promastigotes were pretreated with different concentrations of inhbitors during 1 h at 25 °C. The cells were washed with PBS and used to infect peritoneal macrophages from BALB/c mice (10:1 ratio), not pretreated or pretreated with 0.5 ng/mL IFN-γ overnight, in 24-well plates. After 4 h of interaction, the plates were washed with PBS and (1) scraped to remove attached cells and read using a spectrofluorimeter (time = 0 h) or (2) incubated at 33 °C with 5% CO2 for 24 h, 48 h, and 72 h for later scraping and reading (times = 24 h, 48 h, and 72 h). Three experiments were performed, each one with three replicates.
The same experiment was repeated, but using 13 mm glass coverslips in 24-well plates. The fixation with ethanol and staining with Giemsa were performed. Subsequently, the slides were examined in an optical microscope (Olympus BX53, Shinjuku, Tokyo, Japan) and photographed (Olympus DP73, Shinjuku, Tokyo, Japan).

[6] = tested on: L. amazonensis promastigotes; set-up: method as in PMID 17726617; settings: 24 h, cited from earlier work
[7] = tested on: L. amazonensis (RFP) amastigotes; test: Antiamastigote assay (RFP fluorescence, infected peritoneal macrophages); assay type: cell-based; settings: Leishmania amazonensis, Peritoneal macrophage; 72 h of incubation; interval in brackets; read-out: Antileishmanial effect in Leishmania amazonensis IC50 Amastigote
Description: Peritoneal macrophages from BALB/c mice were obtained by peritoneal lavage and distributed in 24-well plates at 2 × 10^6 cells/mL in RPMI medium (Cultilab) containing 10% FBS and a 0.5% penicillin and streptomycin solution (complete RPMI). The plates were incubated for 1 h at 37 °C and 5% CO2, washed with phosphate-buffered saline (PBS), and then reincubated in complete RPMI medium overnight. The cells were washed again with PBS and infected with stationary growth phase L. amazonensis (RFP) promastigotes at a 10:1 ratio for 4 h at 33 °C. The plates were washed with PBS and the inhibitors were added at different concentrations and incubated for 72 h. After this time, each well was scraped to remove attached cells and the reading was taken with a spectrofluorimeter (FLx800, BioTek Instruments, Winooski, VT, USA) at 530 nm and 590 nm of excitation and emission, respectively. […] All assays were performed in triplicate and repeated three times. Results were calculated as the percentage of amastigote survival compared with the nontreated control group, and IC50 values were determined using GraphPad Prism 8 software.

[8] = tested on: Leishmania amazonensis-RFP promastigotes; test: Viability of promastigotes after 1 h of treatment with inhibitors; assay type: cell-based; settings: 1 h treatment, washed; for viability of promastigotes after 1 h of treatment, compared with the control: 0 h, 24 h, 48 h and 72 h of incubation
Description: Leishmania amazonensis-RFP promastigotes were treated with different concentrations of inhibitors during 1 h at 25 °C and were washed with PBS. Then, these cells had their viability determined by fluorescence analysis using a spectrofluorimeter (time = 0 h) and were also reincubated in complete RPMI medium for subsequent analysis of cell viability after 24 h, 48 h, and 72 h (times = 24 h, 48 h, and 72 h) by fluorescence analysis.

[9] = tested on: L. amazonensis serine proteases; test: Enzymatic assay on promastigote lysate with substrate ABZ-V-F-R-S-L-K-Q EDDnp; assay type: biochemical, Leishmania amazonensis; settings: first 10 min; for enzymatic activity of L. amazonensis serine proteases: 2.5 µM inhibitor
Description: The enzymatic assay was conducted in a final volume of 200 µL per well, containing 1 µM of substrate, supernatant of lysate of 3.7 × 10^6 parasites, 2.5 µM of inhibitors (PF-429242 and TPCK) or 3 µM of E-64 in Tris-buffered pH 8. Substrate ABZ-V-F-R-S-L-K-Q EDDnp was used, which was provided by Dr. Luiz Juliano Neto from the Department of Biophysics of UNIFESP-EPM and is described in Alves, L.C. et al.. The lysate was prepared with promastigotes in stationary phase of growth, washed three times with PBS pH 7.2, and in the last wash it was resuspended in Tris-buffered pH 8 with 1% NP40. The parasites were submitted to five rapid freeze–thaw cycles in liquid nitrogen. The lysate was centrifuged at 20,000g for 10 min at […]. The supernatant was stored at −20 °C until use. The read was carried out using the spectrofluorimeter SoftMax M3 with excitation/emission of 320/420 nm.

[10] = tested on: peritoneal macrophages from BALB/c mice; set-up: method as in PMID 35678670, PMID 33584607, PMID 35890269; settings: 72 h of incubation; previously published data (*); cited from earlier work
[11] = tested on: L. amazonensis in peritoneal macrophages prestimulated with IFN-γ; test: Promastigote pretreatment and infection of macrophages prestimulated with IFN-γ; assay type: cell-based, Leishmania amazonensis; settings: macrophages prestimulated with 0.5 ng/mL IFN-γ overnight; promastigotes pretreated 1 h
Description: as §1

[12] = tested on: NO production by host macrophages; test: Determination of nitric oxide (NO) levels (Griess method); assay type: cell-based, BALB/c mice; settings: supernatant of macrophages infected with promastigotes pretreated for 1 h
Description: Supernatant from cultures of L. amazonensis-infected macrophages, in which promastigotes were pretreated or not with PF-429242 or TPCK, was collected, and NO levels were determined by the Griess method. NO levels were determined in aliquots of 50 µL of the supernatant, to which 50 µL of the Griess reagent were added (Griess Reagent: 1% sulfanilamide in 2.5% of H3PO4 + 0.1% N-1-diidrocloride naftiletilenodiamine in 2.5% H3PO4), in a 96-well microplate. Nitrite content was quantified by comparison with a sodium nitrite standard curve. The absorbance was measured at 540 nm using a spectrophotometer (Multiskan EX, Thermo Electron Corporation, Vantaa, Finland). The assays were carried out in duplicate and three independent experiments were realized. Macrophages prestimulated with 0.5 ng/mL IFN-γ overnight and infected with L. amazonensis promastigotes without pretreatment were used as positive controls.

[13] = tested on: Leishmania amazonensis-WT promastigotes; set-up: method as in PMID 35678670, PMID 33584607, PMID 35890269; settings: 72 h of incubation; previously published data (*); read-out: Antileishmanial effect in Leishmania amazonensis IC50 Promastigote; cited from earlier work
[14] = tested on: L. amazonensis promastigotes and amastigotes; settings: cited from earlier work
[15] = tested on: L. amazonensis (RFP) amastigotes; set-up: method as in PMID 35678670, PMID 33584607, PMID 35890269; settings: 72 h of incubation; previously published data (*); read-out: Antileishmanial effect in Leishmania amazonensis IC50 Amastigote; cited from earlier work
L. amazonensis = settings: mice infected with L. amazonensis; cited from earlier work

C[C@@H]1[C@H](O)[C@@H](C)/C=C/C=C/C=C/C=C/C=C/C=C/C=C/[C@H](O[C@@H]2O[C@H](C)[C@@H](O)[C@H](N)[C@@H]2O)C[C@@H]2O[C@](O)(C[C@@H](O)C[C@@H](O)[C@H](O)CC[C@@H](O)C[C@@H](O)CC(=O)O[C@H]1C)C[C@H](O)[C@H]2C(=O)O [AMB, Amphotericin B]
CC50 at 72 h (Cytotoxicity assay (MTT); peritoneal macrophages, 72 h of incubation, MTT, interval in brackets, read-out: Peritoneal macrophages CC50): 21.8 µM
IC50 [1]: 0.12 µM

N=C(N)c1ccccc1 [Benzamidine, benzamidine]
intracellular survival of the parasites (ranking of inhibitors) [2]: most reduced the intracellular survival
CC50 at 72 h (Cytotoxicity assay (MTT)): 240 µM
cell viability of L. donovani promastigotes [3]: reduced the cell viability
inhibition of the proteolytic activity ([4]; 1 mM): 72%
entry of promastigotes into macrophages [5]: did not change the entry
permanence and survival of amastigotes within host cells ([5]; promastigotes pretreated 1 h with 200 µM or 6.25 µM, up to 72 h): did not alter the permanence and survival
viability of L. amazonensis promastigotes ([6]; 1 mM, 48 h and 72 h of treatment): reduced the viability
IC50 [7]: > 200 µM
viability of promastigotes after 1 h of treatment, compared with the control [8]: did not change the viability
IC50 [1]: > 200 µM

CC(C)C[C@H](NC(=O)[C@H]1O[C@@H]1C(=O)O)C(=O)NCCCCN=C(N)N [E-64]
enzymatic activity on serine protease substrate ([9]; 3 µM): no impact on the activity

Cc1ccc(S(=O)(=O)N[C@@H](Cc2ccccc2)C(=O)CCl)cc1 [TPCK, N-p-tosyl-L-phenylalanine chloromethyl ketone]
CC50 [10]: 139 µM
intracellular survival of L. amazonensis [11]: impairs the intracellular survival
NO production versus control group [12]: no difference in NO production
enzymatic activity of L. amazonensis serine proteases [9]: able to inhibit the enzymatic activity
IC50 [13]: 14.6 µM
cell viability of L. donovani promastigotes (reduction) ([3]; concentration not given): only did so after 15 h and 20 h
growth of promastigotes and intracellular amastigotes ([14]; L. amazonensis): growth inhibition of promastigotes and intracellular amastigotes
IC50 [15]: 14.2 µM
inhibition of the proteolytic activity ([4]; concentration not given): 52%
conversion of promastigotes into amastigotes [5]: no difficulty was observed in conversion
number of intracellular amastigotes (Giemsa, Supplementary Fig. 1) ([5]; 48 h and 72 h after infection): reduction in the number of amastigotes
entry of promastigotes into macrophages [5]: did not alter the entry
survival of parasites within macrophages compared with the negative control ([5]; promastigotes pretreated 1 h with 30 µM or 15 µM, 24 h and 48 h after infection): reduced survival
survival of parasites within macrophages compared with the negative control ([5]; promastigotes pretreated 1 h with 30 µM, 15 µM or 7.5 µM, 72 h after infection): reduced survival
viability of L. amazonensis promastigotes ([6]; 100 µM, after 4 h, 48 h and 72 h of incubation): reducing cell viability
lesion size and parasite load (L. amazonensis): reduction in lesion size and parasite load
viability of promastigotes after 1 h of treatment ([8]; 30 µM, after 72 h of incubation): slight reduction in the viability
viability of promastigotes after 1 h of treatment, compared with the control [8]: not able to change cell viability

PF-429242
CC50 [10]: 189 µM
intracellular survival of L. amazonensis [11]: impairs the intracellular survival
NO production versus control group [12]: no difference in NO production
enzymatic activity of L. amazonensis serine proteases [9]: able to inhibit the enzymatic activity
IC50 [13]: 0.83 µM
growth of promastigotes ([14]; different strains of L. amazonensis): inhibition of the growth of promastigotes
IC50 [15]: 120 µM
conversion of promastigotes into amastigotes [5]: no difficulty was observed in conversion
number of intracellular amastigotes (Giemsa, Supplementary Fig. 1) ([5]; 48 h and 72 h after infection): reduction in the number of amastigotes
entry of promastigotes into macrophages [5]: did not alter the entry
survival of parasites within macrophages compared with the control ([5]; promastigotes pretreated 1 h with 3.2 µM, 1.6 µM or 0.8 µM, 48 h and 72 h after infection): reduced survival
viability of promastigotes after 1 h of treatment, compared with the control [8]: not able to change cell viability

aprotinin
intracellular survival of the parasites (ranking of inhibitors) [2]: most reduced the intracellular survival
cell viability of L. donovani promastigotes [3]: reduced the cell viability
inhibition of the proteolytic activity ([4]; 1 µM): 100%

Source: paper PMC11760092, “Pretreatment with serine protease inhibitors impairs Leishmania amazonensis survival on macrophages” (Parasites & Vectors, 2025)
